Results from patent publication EP0211457A2, “Novel (4-substituted-piperazinyl)pyridazines” (JANSSEN PHARMACEUTICA N.V., priority 1985, dated 1987).
Where a name gives a salt, the structure may show the parent alone.

Experiments:
[1] = tested on: Male Wistar rats; assay: Tail Withdrawal Test; type: in vivo; settings: Rattus norvegicus, iv, tail immersed in water at 55°C, dose suppressing the tail withdrawal response for more than 10 seconds in 50% of the animals, read-out: Tail Witdrawal Test ED50 in mg/kg body weight
Method: Male Wistar rats weighing 200g ± 5g were fasted overnight, water being available at libitum. Aqueous solutions, made isotonic with sodium chloride, of the test compounds at various concentrations were administered to the test animals intraveneously (i.v.). The thus treated rats were put into individual restraining cages. At various time periods after administration, the lower 5 cm portion of the tail was immersed into a cup filled with water at a constant temperature of 55°C. The typical tail withdrawal response was evaluated during a 10 sec. period after the immersion. ED₅₀ values in mg/kg body weight were determined as that dose of the test compound capable of suppressing in 50% of the tested animals the typical tail withdrawal response during a time period exceeding 10 seconds. Said ED₅₀ values for a number of compounds having the formula (I) and the pharma- ceutically acceptable acid-addition salts thereof are gathered in Table 1.

[2] = tested on: Wistar rats; assay: Acetic Acid-Induced Writhing in Rats Test; type: in vivo; settings: Rattus norvegicus, ip, 0.5 ml 1% acetic acid i.p., compound given 15 min after acetic acid, writhes counted 60-75 min after acetic acid, dose reducing to less than 16 writhes in 50% of the animals, read-out: Writhing in Rats Test ED50 in mg/kg body weight
Method: The Acetic Acid-Induced Writhing in Rats Test is known to be a useful tool for the evaluation of the analgesic properties of given test compound (see in connection herewith Drug Research, 25, 1505-1509 (1975)).
Wistar rats weighing about 100g were used throughout. They were injected i.p. with 0.5 ml of a 1% aqueous solution of acetic acid and placed in individual glass containers for observation. […] 5 Min. later (15 min. after the acetic acid treatment) the test compound was administered. […] The lowest effective dose in 50% of the test animals (ED₅₀) was determined as that dose in mg/kg body weight capable of reducing the number of writhes during the 15 minutes observation period to less than 16 writhes in 50% of the tested animals.
Said ED₅₀ values for a number of compounds having the formula (I) and the pharmaceutically acceptable acid-addition salts thereof are gathered in Table 1.

| Compound | ED50 [1] | ED50 [2] |
| --- | --- | --- |
| COc1ccc(N2CCN(C/C=C/c3ccccc3)CC2)nn1 [compound 4, (E)-3-methoxy-6-[4-(3-phenyl-2-propenyl)-1-piperazinyl]pyridazine] | 40 mg/kg | 5 mg/kg |
| Clc1ccc(N2CCN(C/C=C/c3ccccc3)CC2)nn1 [compound 1, (E)-3-chloro-6-[4-(3-phenyl-2-propenyl)-1-piperazinyl]pyridazine] | 20 mg/kg | 5 mg/kg |
| COc1ccc(/C=C/CN2CCN(c3cccnn3)CC2)cc1 [compound 18] |  | 40 mg/kg |
| Fc1ccc(/C=C/CN2CCN(c3cccnn3)CC2)cc1 [compound 11] |  | 40 mg/kg |
| Clc1ccc(N2CCN(C/C=C/c3cccs3)CC2)nn1 [compound 12] |  | 10 mg/kg |
| C(=C\c1ccccc1)/CN1CCN(c2cccnn2)CC1 [compound 8] |  | 2.5 mg/kg |
| Clc1ccc(/C=C/CN2CCN(c3ccc(Cl)nn3)CC2)cc1 [compound 5, (E)-3-chloro-6-[4-[3-(4-chlorophenyl)-2-propenyl]-1-piperazinyl]pyridazine] |  | 40 mg/kg |
| C(=C\c1ccccc1)/CN1CCCN(c2ccc(-c3ccccc3)nn2)CC1 [compound 19] |  | 10 mg/kg |
| CC1CN(C/C=C/c2ccccc2)CCN1c1ccc(Cl)nn1 (centres unmarked) [compound 2, (E)-3-chloro-6-[2-methyl-4-(3-phenyl-2-propenyl)-1-piperazinyl]pyridazine monohydrochloride.hemihydrate] | 10 mg/kg | 5 mg/kg |
| Clc1ccc(N2CCCN(C/C=C/c3ccccc3)CC2)nn1 [compound 7] | 40 mg/kg | 20 mg/kg |
| COc1ccc(/C=C/CN2CCN(c3ccc(Cl)nn3)CC2)cc1 [compound 14] |  | 40 mg/kg |
| [O-][N+]1(C/C=C/c2ccccc2)CCN(c2ccc(Cl)nn2)CC1 [compound 38, (E)-3-chloro-6-[4-(3-phenyl-2-propenyl)-1-piperazinyl]pyridazine, 4-oxide] | ≥ 20 mg/kg | 10 mg/kg |
| Fc1ccc(/C=C/CN2CCN(c3ccc(Cl)nn3)CC2)cc1 [compound 10] |  | 20 mg/kg |
| Brc1ccc(N2CCN(C/C=C/c3ccccc3)CC2)nn1 [compound 3, (E)-3-bromo-6-[4-(3-phenyl-2-propenyl)-1-piperazinyl]pyridazine] |  | 10 mg/kg |
| Cl.Cl.Clc1ccc(N2CCN(C/C=C/c3ccccc3)CC2)nn1 [compound 37, (E)-3-chloro-6-[4-(3-phenyl-2-propenyl)-1-piperazinyl]pyridazine dihydrochloride] | < 40 mg/kg | 10 mg/kg |
| Cc1ccc(/C=C/CN2CCN(c3ccc(Cl)nn3)CC2)cc1 [compound 13] |  | 40 mg/kg |
| COc1ccc(N2CCN(C/C=C/c3ccc(F)cc3)CC2)nn1 [compound 9] |  | 10 mg/kg |
